Results as given in patent US20030228373A1, “Composition including a triamine and a biocide and a method for inhibiting the growth of microorganisms with the same” (Lonza Inc., priority 2002, published 2003).

System: microorganisms in the process water
Assay: Microbial count reduction in paper mill process water (3 h contact at 37° C., TGE agar plate count); synergism by the Kull method
Format: cell-based
Conditions: for Colony forming units per milliliter of sample (CFU/ml) after overnight incubation / Logarithmic Growth Reduction relative to the Control Experiment [log (CFU/ml of control plate) − log (CFU/ml of experimental plate)]: process water pH 7.0, 3 hours at 37° C.; for concentration alone required to yield a thousand fold reduction in the microorganism count of the process water (Qa, Qb): substance alone
Experimental: Samples of process water having a pH of 7.0 obtained from a paper mill were supplemented with Lonzabac® 12.100 and Barquat® MB-80 at the concentrations indicated in Table 1 below. Barquat® MB-80 is an 80% aqueous solution of N-(C12-C16 alkyl)-N-benzyl-N,N-dimethylammonium chloride available from Lonza Inc. of Fair Lawn, N.J. Lonzabac® 12.100 is a 100% N,N-bis(3-aminopropyl)-dodecylamine liquid available from Lonza Inc. The samples were immediately mixed and incubated for 3 hours at 37° C. with agitation in an orbital shaker. After 3 hours, tryptone glucose extract (TGE) agar plates were inoculated with each sample and grown overnight at 37° C. The number of colonies on each plate was then counted.
This experiment was repeated with a sample of process water that was not treated with Lonzabac® 12.100 or Barquat® MB-80 as a control.
Synergism for the solutions in Table 1 against the microorganisms in the process water was calculated by the methods described in C. E. Kull et al., “Mixtures of Quaternary Ammonium Compounds and Long-chain Fatty Acids as Antifungal Agents”, Applied Microbiology, 9:538-541 (1961). The synergism value (QA/Qa+QB/Qb) was determined. QA is the concentration of Lonzabac® 12.100 (in ppm) in a Lonzabac® 12.100/Barquat® MB-80 mixture, which yielded a thousand fold reduction in the microorganism count of the process water. Qa is the concentration of Lonzabac® 12.100 alone (in ppm) required to yield a thousand fold reduction in the microorganism count of the process water. QB is the concentration of Barquat® MB-80 (in ppm) in a Lonzabac® 12.100/Barquat® MB-80 mixture, which yielded a thousand fold reduction in the microorganism count of the process water. Qb is the concentration of Barquat® MB-80 alone (in ppm) required to yield a thousand fold reduction in the microorganism count of the process water.
The procedure in Example 1 was repeated substituting peracetic acid for Barquat® MB-80 with the solutions in Table 2 below.

Row | Compound | Colony forming units per milliliter of sample (CFU/ml) after overnight incubation (Lonzabac 12.100 15 ppm alone) | Logarithmic Growth Reduction relative to the Control Experiment [log (CFU/ml of control plate) − log (CFU/ml of experimental plate)] (Lonzabac 12.100 15 ppm alone) | Colony forming units per milliliter of sample (CFU/ml) after overnight incubation (Lonzabac 12.100 30 ppm alone) | Logarithmic Growth Reduction relative to the Control Experiment [log (CFU/ml of control plate) − log (CFU/ml of experimental plate)] (Lonzabac 12.100 30 ppm alone) | Colony forming units per milliliter of sample (CFU/ml) after overnight incubation (Lonzabac 12.100 60 ppm alone) | Logarithmic Growth Reduction relative to the Control Experiment [log (CFU/ml of control plate) − log (CFU/ml of experimental plate)] (Lonzabac 12.100 60 ppm alone) | Colony forming units per milliliter of sample (CFU/ml) after overnight incubation (Lonzabac 12.100 90 ppm alone) | Logarithmic Growth Reduction relative to the Control Experiment [log (CFU/ml of control plate) − log (CFU/ml of experimental plate)] (Lonzabac 12.100 90 ppm alone) | concentration alone required to yield a thousand fold reduction in the microorganism count of the process water (Qa, Qb) | Colony forming units per milliliter of sample (CFU/ml) after overnight incubation (Peracetic Acid 20 ppm alone) | Logarithmic Growth Reduction relative to the Control Experiment [log (CFU/ml of control plate) − log (CFU/ml of experimental plate)] (Peracetic Acid 20 ppm alone) | Colony forming units per milliliter of sample (CFU/ml) after overnight incubation (Peracetic Acid 50 ppm alone) | Logarithmic Growth Reduction relative to the Control Experiment [log (CFU/ml of control plate) − log (CFU/ml of experimental plate)] (Peracetic Acid 50 ppm alone)
1 | CCCCCCCCCCCCN(CCCN)CCCN [Lonzabac ® 12.100, N,N-bis(3-aminopropyl)-dodecylamine] | 6.55 × 10^7 CFU/ml | 0.7 | 6.40 × 10^6 CFU/ml | 1.7 | 3.25 × 10^5 CFU/ml | 3.0 | 1.00 × 10^5 CFU/ml | 3.5 | 60 ppm |  |  |  | 
2 | CC(=O)OO [Peracetic Acid, peracetic acid, reference compound] |  |  |  |  |  |  |  |  | 50 ppm | 1.43 × 10^7 CFU/ml | 1.3 | 1.00 × 10^5 CFU/ml | 3.2
